Reference: ChEMBL document CHEMBL1201862, “PubChem BioAssay data set” (2004)
One block for each molecule: values may come before it. Calls of active or inactive are those of the source.

Tests used:
[1] = target: T1, Alkaline phosphatase, tissue-nonspecific isozyme (Homo sapiens, UniProt P05186); assay: TNAP enzyme activators, dose response, selectivity assay for human IAP activator project, biochemical, TNAP isozyme, human IAP uHTS hits (AID 488886); type: functional;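 further: potency of compounds raising TNAP activity as a selectivity check on IAP activators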
T1 sequence (P05186 whole entry): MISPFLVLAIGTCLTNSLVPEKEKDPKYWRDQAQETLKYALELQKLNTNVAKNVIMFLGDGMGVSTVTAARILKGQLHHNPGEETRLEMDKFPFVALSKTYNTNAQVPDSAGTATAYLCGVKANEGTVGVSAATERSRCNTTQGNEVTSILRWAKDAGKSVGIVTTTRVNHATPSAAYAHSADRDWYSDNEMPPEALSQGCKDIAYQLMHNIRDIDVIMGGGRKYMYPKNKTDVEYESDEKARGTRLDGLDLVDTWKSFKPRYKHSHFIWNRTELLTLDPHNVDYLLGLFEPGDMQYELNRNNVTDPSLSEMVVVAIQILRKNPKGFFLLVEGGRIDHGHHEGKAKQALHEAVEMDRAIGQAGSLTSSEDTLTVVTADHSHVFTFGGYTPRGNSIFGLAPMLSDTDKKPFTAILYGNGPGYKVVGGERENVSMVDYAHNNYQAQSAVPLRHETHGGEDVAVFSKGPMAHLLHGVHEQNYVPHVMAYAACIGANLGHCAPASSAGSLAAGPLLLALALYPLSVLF

[2] = target: T2, Intestinal-type alkaline phosphatase (Homo sapiens, UniProt P09923); assay: human IAP activators, dose response, biochemical, luminescent, uHTS hits, set 2 (AID 488817); type: functional;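 further: potency of activators that raise enzyme activity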
[3] = target: Intestinal-type alkaline phosphatase (Mus musculus, UniProt P24822); assay: PubChem AID 488875; type: functional
[4] = target: T2, Intestinal-type alkaline phosphatase; assay: human intestinal alkaline phosphatase activators, dose response, biochemical, luminescence, uHTS hits (AID 463120); type: functional
HEK293 [5] = assay: cells; conditions: Homo sapiens
HEK293 [6] = assay: cells; conditions: Homo sapiens; remark: listed apart in the source
[7] = target: T3, Voltage-gated N-type calcium channel alpha-1B subunit/Amyloid beta A4 precursor protein-binding family A member 1 (Homo sapiens, UniProt Q00975+Q02410); type: protein assay
[8] = target: T4, Apoptotic protease-activating factor 1 (Homo sapiens, UniProt O14727); assay: activation of Apaf-1 mediated apoptosis – fluorescent, uHTS hits, dose response (AID 588554); type: functional
T4 sequence (O14727 whole entry): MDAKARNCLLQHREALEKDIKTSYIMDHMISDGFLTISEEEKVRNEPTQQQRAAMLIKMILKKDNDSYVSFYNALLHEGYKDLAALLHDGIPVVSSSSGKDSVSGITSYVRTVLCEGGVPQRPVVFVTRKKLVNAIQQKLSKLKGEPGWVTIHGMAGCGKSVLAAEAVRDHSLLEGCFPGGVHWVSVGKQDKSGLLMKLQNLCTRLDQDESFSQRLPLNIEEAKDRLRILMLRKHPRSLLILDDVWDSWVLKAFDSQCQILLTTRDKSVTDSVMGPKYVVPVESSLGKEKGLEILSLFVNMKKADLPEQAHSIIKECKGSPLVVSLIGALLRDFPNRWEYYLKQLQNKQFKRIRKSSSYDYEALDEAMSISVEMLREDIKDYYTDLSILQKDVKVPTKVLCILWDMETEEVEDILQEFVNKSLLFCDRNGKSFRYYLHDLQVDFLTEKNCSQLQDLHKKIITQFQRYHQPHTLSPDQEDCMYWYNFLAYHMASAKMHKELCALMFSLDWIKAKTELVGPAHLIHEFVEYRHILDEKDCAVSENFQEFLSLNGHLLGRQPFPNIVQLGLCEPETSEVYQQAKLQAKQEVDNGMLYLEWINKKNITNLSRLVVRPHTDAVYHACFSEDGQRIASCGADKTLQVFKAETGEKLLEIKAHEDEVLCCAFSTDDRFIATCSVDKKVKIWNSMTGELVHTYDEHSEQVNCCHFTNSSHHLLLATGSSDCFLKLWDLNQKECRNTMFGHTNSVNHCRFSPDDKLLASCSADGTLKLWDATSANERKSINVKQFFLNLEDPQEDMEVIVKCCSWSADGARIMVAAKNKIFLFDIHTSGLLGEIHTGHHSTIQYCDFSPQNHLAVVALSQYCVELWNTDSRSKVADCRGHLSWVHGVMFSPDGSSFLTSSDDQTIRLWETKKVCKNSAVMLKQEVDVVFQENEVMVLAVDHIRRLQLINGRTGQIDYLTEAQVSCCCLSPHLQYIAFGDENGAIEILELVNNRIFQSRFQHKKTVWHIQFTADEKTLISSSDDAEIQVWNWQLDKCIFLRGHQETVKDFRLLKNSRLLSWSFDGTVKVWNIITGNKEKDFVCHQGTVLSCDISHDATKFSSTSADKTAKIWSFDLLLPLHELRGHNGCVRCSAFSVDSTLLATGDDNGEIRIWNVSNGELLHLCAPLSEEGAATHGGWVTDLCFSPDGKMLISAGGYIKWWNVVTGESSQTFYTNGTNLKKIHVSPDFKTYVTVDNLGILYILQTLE

[9] = target: T3, Voltage-gated N-type calcium channel alpha-1B subunit/Amyloid beta A4 precursor protein-binding family A member 1; type: protein assay; remark: listed apart in the source
CAAX prenyl protease 1 = CAAX prenyl protease 1 (Saccharomyces cerevisiae S288c, UniProt P47154); assay: Ste24 protease inhibitors, dose response, biochemical, S. cerevisiae, plate reader, cherry-pick (AID 488815)
CAAX prenyl protease 2 = target: T5, CAAX prenyl protease 2 (Homo sapiens, UniProt Q9Y256); assay: human Rce1 protease inhibitors, dose response, biochemical, yeast membranes, quenched-peptide fluorescence, cherry-pick (AID 588849)
T5 sequence (Q9Y256 whole entry): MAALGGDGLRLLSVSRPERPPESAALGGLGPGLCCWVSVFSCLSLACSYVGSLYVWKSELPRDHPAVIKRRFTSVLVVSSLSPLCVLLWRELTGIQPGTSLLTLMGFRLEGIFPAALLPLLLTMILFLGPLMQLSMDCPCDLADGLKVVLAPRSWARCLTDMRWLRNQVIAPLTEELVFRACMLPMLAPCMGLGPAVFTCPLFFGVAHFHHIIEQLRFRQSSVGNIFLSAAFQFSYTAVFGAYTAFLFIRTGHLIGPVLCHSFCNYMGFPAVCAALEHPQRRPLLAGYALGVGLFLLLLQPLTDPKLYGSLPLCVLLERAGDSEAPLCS

Trypsin = Trypsin (Sus scrofa, UniProt P00761); assay: porcine trypsin inhibitors, dose response, selectivity assay for Rce1 protease inhibitor project, biochemical, quenched peptide fluorescence, cherry-pick (AID 488789)
[10] = Luminescence Cell-Based Dose Response Follow up to Identify Inhibitors of Platelet Dense Granule Release. [Related pubchem assays (depositor defined):AID1663, AID1678, AID1889, AID2519]; type: functional
Candida albicans = assay: reversal of fluconazole resistance in C. albicans, dose response, CaCi-2 strain, Alamar Blue, dry powder, set 3 (AID 488907); type: functional, organism-based
INS1 = assay: beta cell apoptosis inhibitors, cytokine rescue, dose response, luminescence, retest (AID 449756); type: functional, cell-based; conditions: Rattus norvegicus;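 further: cell death triggered by IL-1 beta plus TNF-alpha plus IFN-gamma mixture; protective hits raise ATP signal compared with cytokine alone wells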
[11] = Luminescence Cell-Based Dose Retest to Confirm Inhibitors of Cancer Stem Cells. [Related pubchem assays (depositor defined):AID2717, AID2721]; type: functional; conditions: Homo sapiens
[12] = target: Lysine-specific demethylase 4A (Homo sapiens, UniProt O75164); assay: JMJD2A histone demethylase inhibitors, dose response, selectivity assay for GASC-1 inhibitor project, biochemical, DELFIA europium, cherry-picked samples (AID 488840)
cells [13] = type: functional, cell-based
[14] = target: Lysine-specific demethylase 4C (Homo sapiens, UniProt Q9H3R0); assay: GASC-1 (JMJD2C) histone demethylase inhibitors, dose response, biochemical, DELFIA europium, cherry-picked samples (AID 488835); type: functional
[15] = target: T6, Heat shock factor protein 1 (Mus musculus, UniProt P38532); assay: HSF1 potentiators in luciferase reporter cells, confirmation, cell-based, NIH3T3, luminescence, dose retest (AID 435004); type: functional;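 further: stress induced by proteasome inhibitor MG132 added 30 min after compound; luciferase reporter driven by HSF1 response element in NIH3T3 cells; actives raise luminescence as potentiators of the MG132 stress response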
T6 sequence (P38532 whole entry): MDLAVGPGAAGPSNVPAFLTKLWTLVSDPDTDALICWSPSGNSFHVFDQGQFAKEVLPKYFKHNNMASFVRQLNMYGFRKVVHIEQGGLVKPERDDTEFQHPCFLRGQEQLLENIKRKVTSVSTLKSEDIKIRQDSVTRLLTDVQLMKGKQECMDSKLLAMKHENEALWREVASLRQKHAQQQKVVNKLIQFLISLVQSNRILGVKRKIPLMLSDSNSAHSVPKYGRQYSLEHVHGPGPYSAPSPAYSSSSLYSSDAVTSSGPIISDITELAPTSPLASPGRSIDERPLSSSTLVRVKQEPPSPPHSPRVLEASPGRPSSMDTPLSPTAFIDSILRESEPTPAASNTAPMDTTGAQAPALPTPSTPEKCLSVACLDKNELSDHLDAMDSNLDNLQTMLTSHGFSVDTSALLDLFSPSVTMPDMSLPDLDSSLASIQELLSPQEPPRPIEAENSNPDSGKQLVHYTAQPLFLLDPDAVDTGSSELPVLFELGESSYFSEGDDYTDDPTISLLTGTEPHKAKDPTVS

Hexokinase HKDC1 = target: T7, Hexokinase HKDC1 (Homo sapiens, UniProt Q2TB90); assay: HKDC1 hexokinase inhibitors, dose response, biochemical, W721R variant (AID 504729); type: functional
T7 sequence (Q2TB90 whole entry): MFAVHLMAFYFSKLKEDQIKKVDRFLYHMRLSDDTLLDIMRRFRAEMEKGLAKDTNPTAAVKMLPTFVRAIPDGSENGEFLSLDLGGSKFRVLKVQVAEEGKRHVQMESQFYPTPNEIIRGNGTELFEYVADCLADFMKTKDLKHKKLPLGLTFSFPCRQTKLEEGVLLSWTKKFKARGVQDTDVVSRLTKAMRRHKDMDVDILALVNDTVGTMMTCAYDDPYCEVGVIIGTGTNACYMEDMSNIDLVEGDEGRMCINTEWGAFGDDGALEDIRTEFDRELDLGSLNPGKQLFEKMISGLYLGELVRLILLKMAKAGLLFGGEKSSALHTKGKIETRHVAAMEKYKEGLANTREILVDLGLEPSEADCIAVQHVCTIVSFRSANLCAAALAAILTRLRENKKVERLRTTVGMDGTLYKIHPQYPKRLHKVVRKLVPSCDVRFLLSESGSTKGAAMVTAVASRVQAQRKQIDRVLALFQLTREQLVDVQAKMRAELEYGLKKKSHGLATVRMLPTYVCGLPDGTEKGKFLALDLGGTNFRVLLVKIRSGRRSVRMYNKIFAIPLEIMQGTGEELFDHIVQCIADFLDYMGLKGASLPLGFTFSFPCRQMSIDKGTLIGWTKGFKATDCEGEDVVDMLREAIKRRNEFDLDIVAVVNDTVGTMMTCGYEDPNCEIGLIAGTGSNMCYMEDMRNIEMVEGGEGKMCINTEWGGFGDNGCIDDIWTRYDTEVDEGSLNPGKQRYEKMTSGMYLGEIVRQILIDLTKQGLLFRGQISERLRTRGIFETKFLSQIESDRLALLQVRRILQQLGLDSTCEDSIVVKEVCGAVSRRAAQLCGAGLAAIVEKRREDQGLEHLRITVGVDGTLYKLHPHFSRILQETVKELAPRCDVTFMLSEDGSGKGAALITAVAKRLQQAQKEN

cells [16] = type: functional, cell-based; remark: listed apart in the source

T3 sequence (Q00975 whole entry): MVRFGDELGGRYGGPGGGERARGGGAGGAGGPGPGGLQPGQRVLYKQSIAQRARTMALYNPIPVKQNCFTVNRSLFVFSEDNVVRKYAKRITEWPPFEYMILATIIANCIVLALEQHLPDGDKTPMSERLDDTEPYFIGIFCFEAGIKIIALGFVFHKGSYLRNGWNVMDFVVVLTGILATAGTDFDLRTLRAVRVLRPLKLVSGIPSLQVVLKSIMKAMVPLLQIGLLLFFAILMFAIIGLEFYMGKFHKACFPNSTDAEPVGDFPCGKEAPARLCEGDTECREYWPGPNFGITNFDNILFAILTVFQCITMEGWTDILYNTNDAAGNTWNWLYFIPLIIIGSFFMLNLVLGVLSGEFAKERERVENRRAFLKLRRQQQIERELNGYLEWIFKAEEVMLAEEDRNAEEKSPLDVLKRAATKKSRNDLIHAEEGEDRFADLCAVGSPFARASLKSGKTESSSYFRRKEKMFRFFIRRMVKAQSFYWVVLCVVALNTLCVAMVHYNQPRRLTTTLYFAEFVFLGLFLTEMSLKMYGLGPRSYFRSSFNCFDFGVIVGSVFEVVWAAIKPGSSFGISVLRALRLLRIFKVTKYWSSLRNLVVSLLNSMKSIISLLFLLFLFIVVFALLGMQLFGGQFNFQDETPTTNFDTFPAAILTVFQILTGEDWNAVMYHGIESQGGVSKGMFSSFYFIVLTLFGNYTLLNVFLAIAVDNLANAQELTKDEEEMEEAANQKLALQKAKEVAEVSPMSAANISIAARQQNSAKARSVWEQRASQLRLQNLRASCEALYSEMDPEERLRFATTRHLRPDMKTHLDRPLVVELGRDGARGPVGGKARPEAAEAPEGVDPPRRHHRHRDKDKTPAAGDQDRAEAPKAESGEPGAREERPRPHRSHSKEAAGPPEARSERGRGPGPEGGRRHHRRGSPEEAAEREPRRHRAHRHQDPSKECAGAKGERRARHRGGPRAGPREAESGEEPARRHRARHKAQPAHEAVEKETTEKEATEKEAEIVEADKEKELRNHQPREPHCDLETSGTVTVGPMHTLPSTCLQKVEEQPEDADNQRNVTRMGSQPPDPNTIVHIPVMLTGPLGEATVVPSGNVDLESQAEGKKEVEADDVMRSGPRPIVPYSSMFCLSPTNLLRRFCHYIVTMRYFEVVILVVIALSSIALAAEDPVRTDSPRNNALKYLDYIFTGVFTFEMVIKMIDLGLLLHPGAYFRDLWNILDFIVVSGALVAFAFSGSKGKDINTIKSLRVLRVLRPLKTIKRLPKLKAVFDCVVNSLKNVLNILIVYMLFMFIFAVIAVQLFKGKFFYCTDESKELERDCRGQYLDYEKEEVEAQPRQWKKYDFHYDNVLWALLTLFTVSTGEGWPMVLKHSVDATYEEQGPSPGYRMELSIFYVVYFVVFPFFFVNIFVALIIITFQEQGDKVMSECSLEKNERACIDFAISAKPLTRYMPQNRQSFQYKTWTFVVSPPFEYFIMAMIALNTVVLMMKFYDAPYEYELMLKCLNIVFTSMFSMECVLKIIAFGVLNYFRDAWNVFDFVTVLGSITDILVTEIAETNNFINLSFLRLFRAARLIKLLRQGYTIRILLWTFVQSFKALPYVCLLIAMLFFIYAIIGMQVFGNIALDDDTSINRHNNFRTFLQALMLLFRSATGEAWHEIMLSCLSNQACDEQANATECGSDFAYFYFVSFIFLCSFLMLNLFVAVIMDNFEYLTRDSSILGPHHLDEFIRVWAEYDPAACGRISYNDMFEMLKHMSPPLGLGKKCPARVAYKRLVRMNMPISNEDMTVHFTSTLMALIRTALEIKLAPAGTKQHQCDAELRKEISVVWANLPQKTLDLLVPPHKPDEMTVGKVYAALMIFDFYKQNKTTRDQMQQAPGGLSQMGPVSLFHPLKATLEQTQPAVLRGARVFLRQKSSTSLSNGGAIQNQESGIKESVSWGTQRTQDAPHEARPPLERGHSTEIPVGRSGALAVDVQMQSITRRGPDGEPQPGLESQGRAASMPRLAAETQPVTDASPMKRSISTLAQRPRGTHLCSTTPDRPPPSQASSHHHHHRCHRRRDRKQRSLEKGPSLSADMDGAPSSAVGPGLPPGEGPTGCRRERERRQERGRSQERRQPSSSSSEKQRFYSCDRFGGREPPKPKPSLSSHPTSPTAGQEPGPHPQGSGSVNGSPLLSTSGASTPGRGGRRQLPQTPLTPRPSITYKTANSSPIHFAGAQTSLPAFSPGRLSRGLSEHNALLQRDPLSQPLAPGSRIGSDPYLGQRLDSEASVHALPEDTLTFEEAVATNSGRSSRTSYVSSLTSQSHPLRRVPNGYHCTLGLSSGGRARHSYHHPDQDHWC
T3 sequence (Q02410 whole entry): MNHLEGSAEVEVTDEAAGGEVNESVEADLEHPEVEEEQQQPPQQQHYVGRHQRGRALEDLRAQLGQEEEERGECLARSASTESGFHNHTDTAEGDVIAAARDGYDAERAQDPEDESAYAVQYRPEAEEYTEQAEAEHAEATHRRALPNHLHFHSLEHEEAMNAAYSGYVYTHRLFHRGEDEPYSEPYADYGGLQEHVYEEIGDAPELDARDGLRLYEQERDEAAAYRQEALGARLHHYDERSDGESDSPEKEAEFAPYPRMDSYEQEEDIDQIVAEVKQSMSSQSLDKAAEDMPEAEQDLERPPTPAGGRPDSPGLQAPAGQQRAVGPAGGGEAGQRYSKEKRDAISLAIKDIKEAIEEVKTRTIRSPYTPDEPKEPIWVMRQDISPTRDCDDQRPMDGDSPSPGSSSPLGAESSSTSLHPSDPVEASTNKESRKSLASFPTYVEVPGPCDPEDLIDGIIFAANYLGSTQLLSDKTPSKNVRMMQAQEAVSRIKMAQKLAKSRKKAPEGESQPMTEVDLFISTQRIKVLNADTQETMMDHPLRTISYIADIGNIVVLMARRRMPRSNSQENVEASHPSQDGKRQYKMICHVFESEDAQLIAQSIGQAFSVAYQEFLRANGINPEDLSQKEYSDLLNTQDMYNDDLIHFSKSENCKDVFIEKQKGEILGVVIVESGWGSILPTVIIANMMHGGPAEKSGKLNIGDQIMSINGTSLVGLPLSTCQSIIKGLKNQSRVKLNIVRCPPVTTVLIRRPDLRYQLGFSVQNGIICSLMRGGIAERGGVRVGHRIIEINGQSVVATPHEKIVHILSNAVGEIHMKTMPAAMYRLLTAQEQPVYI
T2 sequence (P09923 whole entry): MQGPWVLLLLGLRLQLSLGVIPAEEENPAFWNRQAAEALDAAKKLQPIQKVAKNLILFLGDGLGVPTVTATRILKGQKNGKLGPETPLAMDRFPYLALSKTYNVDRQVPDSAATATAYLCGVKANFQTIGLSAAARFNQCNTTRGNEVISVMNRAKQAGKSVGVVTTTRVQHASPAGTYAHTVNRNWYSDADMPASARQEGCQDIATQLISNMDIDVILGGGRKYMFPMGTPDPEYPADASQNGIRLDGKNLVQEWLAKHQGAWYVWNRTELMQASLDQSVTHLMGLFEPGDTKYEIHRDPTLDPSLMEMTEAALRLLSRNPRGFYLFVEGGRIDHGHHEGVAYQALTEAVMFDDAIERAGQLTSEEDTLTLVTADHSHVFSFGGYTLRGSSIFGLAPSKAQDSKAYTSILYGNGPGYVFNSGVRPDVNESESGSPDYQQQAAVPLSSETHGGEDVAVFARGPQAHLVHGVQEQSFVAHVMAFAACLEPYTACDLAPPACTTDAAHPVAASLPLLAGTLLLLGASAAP
Lysine-specific demethylase 4C, sequence (Q9H3R0 whole entry): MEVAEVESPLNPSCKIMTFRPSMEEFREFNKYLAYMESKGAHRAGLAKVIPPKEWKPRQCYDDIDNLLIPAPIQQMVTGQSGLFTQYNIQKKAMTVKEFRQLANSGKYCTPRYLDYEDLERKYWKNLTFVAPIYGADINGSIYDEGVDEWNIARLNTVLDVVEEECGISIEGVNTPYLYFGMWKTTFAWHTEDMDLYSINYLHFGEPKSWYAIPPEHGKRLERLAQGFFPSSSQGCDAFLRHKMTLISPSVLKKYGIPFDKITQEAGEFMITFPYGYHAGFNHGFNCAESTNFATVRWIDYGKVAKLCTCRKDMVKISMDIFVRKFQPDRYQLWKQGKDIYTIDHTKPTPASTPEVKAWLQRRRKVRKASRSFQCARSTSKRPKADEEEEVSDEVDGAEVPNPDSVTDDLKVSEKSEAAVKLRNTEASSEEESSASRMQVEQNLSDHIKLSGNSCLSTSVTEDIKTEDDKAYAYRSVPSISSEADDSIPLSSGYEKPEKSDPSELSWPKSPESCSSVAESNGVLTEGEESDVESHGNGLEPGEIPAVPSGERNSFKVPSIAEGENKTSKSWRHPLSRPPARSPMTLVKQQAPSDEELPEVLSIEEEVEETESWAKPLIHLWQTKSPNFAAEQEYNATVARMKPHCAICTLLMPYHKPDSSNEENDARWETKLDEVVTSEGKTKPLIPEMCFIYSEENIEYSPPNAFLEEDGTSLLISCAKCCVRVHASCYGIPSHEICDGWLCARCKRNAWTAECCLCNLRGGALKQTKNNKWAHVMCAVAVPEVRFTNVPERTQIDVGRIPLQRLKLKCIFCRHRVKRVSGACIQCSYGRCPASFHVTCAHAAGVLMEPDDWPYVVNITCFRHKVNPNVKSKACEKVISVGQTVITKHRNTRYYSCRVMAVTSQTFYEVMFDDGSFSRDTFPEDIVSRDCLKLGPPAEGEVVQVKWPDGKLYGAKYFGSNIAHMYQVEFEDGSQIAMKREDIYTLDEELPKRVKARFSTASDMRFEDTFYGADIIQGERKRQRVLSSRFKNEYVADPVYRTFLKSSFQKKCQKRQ
Trypsin, sequence (P00761 whole entry): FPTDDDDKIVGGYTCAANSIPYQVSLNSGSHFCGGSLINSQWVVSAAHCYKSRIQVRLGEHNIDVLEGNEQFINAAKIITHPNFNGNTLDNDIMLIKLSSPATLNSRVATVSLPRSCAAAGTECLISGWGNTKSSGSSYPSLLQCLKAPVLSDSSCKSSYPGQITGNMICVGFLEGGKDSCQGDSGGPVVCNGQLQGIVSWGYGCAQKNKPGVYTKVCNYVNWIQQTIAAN

- EC50 [1]: 63.1 µM (active)
- EC50 [2]: 46.9 µM (active)
- EC50 [3]: 33.9 µM (active)
- EC50 [4]: 61.3 µM (active)
Structure (SMILES): COc1cc(NC(=O)NCC2CCN(Cc3ccccc3Cl)CC2)cc(OC)c1OC

Structure (SMILES): COc1cc2c(cc1OC)-c1cc(OCc3cccnc3)nc(=O)n1CC2
- EC50 (HEK293 [5]): > 59.6 µM (inactive)
- EC50 (HEK293 [6]): > 59.6 µM (inactive)

- IC50 [7]: 18.6 µM (active)
- EC50 [8]: 7.82 µM (active)
- IC50 [9]: > 50 µM (inactive)
Structure (SMILES): Cc1cc(C)c2c(=O)c(/C=C3\NC(=S)NC3=O)coc2c1

- AC50 (CAAX prenyl protease 1): 8.08 µM (active)
- AC50 (CAAX prenyl protease 2): 22.2 µM (active)
- AC50 (Trypsin): 27.2 µM (active)
Structure (SMILES): COc1ccc2c(c1)cc(C(=O)N[C@@H](CCSC)C(=O)N1CCC(C(=O)O)CC1)n2C

Structure (SMILES): CCCC(=O)Nc1cccc(NC(=O)Cc2ccc(Cl)cc2)c1
- EC50 [10]: 500 µM (inactive)

Structure (SMILES): Cc1ccnc(N2CCN(C(=O)c3ccc(Cl)cc3)CC2)c1
- AC50 (Candida albicans): 0.0873 µM (active)

Structure (SMILES): Oc1ccc(/C=N/Nc2ncc(Br)cn2)c(O)c1
- AC50 (INS1): 1.54 µM (active)
- AC50 [11]: 4.55 µM (active)
- AC50 [12]: > 60 µM (inactive)
- EC50 (cells [13]): > 350 µM (not active)
- AC50 [14]: 0.829 µM (active)
- EC50 [15]: 18.6 µM (active)
- IC50 (Hexokinase HKDC1): 1.68 µM (active)
- EC50 (cells [16]): 41.1 µM (active)
